Experimental data from publication PMC11637191, “The pH-dependence of efflux ratios determined with bidirectional transport assays across cellular monolayers” (International Journal of Pharmaceutics: X, 2024).
Where “and” joins values, the source holds several entries; their conditions need not be identical. Equal values may be shown once. Read-outs that look alike come from different tables or passages of the source. Each block holds one compound with its values, some of them ahead of it.

What was measured:
[1] = Calculation of neutral fraction (fn)
[2] = test system: P-gp (MDR1); test: Measurement of paracellular transport (Ppara) in MDCK-MDR1 cells with and without P-gp inhibitors; format: in vitro ADME, canine; details: dog, pH 7.4, one replicate
From the text: (§1) In initial fits, we used experimentally obtained values for Ppara , determined by measuring the Papp of the relevant compound at a pH value where paracellular transport was expected to dominate. Since the compounds in this study are P-gp substrates, elacridar was also used to inhibit P-gp. Under these conditions, the measured Papp is expected to be a measure of Ppara . […]
(§2) X Measurement of paracellular transport […]
(§3) assess its relative contribution to overall flux, it is necessary to quantify paracellular transport in some way. An approximation of paracellular transport can be mathematically calculated as desc ribed in […]
(§4) and cell type can influence and complicate the predictions, leading to uncertainties. H owever, it can also be experimentally measured provided that it can be assured that the P app would be dominated by the contribution of P para . […]
(§5) compounds. In order to ensure paracellular dominance, 2 µM elacridar was used to inhibit potential P-gp facilitated efflux, and the transport buffer was set to a pH that would severely restrict the neutral […]
(§6) Table S13: P app values and measured logP para for basic and acidic marker compounds. P app values are the mean of three timepoints per replicate, for a total of three replicates (n = 3) ± standard […]
(§7) Compound pH Papp, A⟶B logP para Recovery fn
(§8) In light of the uncertainties in predicting P para , it was presumed more apt to measure P para for each compound individually in parallel with the pH dependence experiments. As described in Section 4.3 of the main text, experiments were initially performed for each tested compound with inhibitor and appropriate pH values (similar to those performed for Table S12) in an attempt to ensure the dominance of paracellular transport. These values could then be used as a direct measure for P para for each compound that could be fed to the model for its individual fit. […]
(§9) affecting P para and/or the measurement of it, we measured the P app of more commonly-used markers for paracellular transport with and without inhibitor. The transport of these rather hydrophilic compounds is known to be dominated by the paracellular route. Furthermore, for our MDCK- MDR1 […]
(§10) efflux is not expected to play a role. As such, the addition of inhibitor in this case is purely to evaluate if the P app changes when it is present.

[3] = as above; format: in vitro ADME, canine; details: dog; for Papp: MDCK-MDR1, with elacridar 2 µM
From the text: as §1, §2, §3, §4, §5, §6, §7, §8, §9, §10

[4] = basic; ref Advanced Chemistry Development, 2020; cited from earlier work
[5] = test system: P-gp (MDR1); test: in vitro; details: dog
[6] = in vitro; details: dog
[7] = test system: MDCK-II-MDR1 cells
[8] = test system: P-gp (MDR1); test: Comparison of Papp,B-A with and without inhibitor in MDCK-MDR1 cells (own and literature data); details: dog, MDCK-MDR1, pH 7.4, with P-gp inhibitor (elacridar 2 µM in this study's P0 assays), Papp, inhibitor, This study; with inhibitor; pH 7.4 iso-method
[9] = test system: MDCK-MDR1 cells; test: as above; details: pH 7.4 iso-method
[10] = test system: MDCK-MDR1 cells; details: pH 7.4 iso-method, cited from earlier work; for Papp, inhibitor: with inhibitor; for Papp, B⟶A: without inhibitor
[11] = test system: Caco-2 cells; test: Model fits of pH-gradient Caco-2 data of Neuhoff et al. (2003)
From the text: Error bars represent standard deviation.
Fit Parameters A: Neutral-Neutral B: Ionic-Ionic C: Neutral-Ionic […]
as §2, §3, §4
compounds. In order to ensure paracellular dominance, 2 µM elacridar was used to inhibit potential P-gp facilitated efflux, and the transport buffer was set to a pH that would severely restrict the neutral

[12] = ref Troutman and Thakker (2003)
[13] = Neutral-Neutral assumption, gradient pH method, basolateral pH 7.4, fit of Neuhoff et al. 2003 data

- fn ([1]; neutral fraction at pH 7.4): 16.5%
- fn ([1]; neutral fraction at pH 9): 0.8%
- Papp ([2]; MDCK-MDR1, with cyclosporin A 10 µM, A → B + cyclosporin-A (10 μM)): 0.7 ×10⁻⁶ cm/s
- Papp ([2]; MDCK-MDR1, with elacridar 2 µM, A → B + elacridar (2 μM)): 0.9 ×10⁻⁶ cm/s
- Papp ([2]; MDCK-MDR1, with verapamil 100 µM, A → B + verapamil (100 μM)): 1.4 ± 0.1 ×10⁻⁶ cm/s
- Papp ([2]; MDCK-MDR1, A → B, no inhibitor): 0.2 ×10⁻⁶ cm/s
- recovery ([3]; MDCK-MDR1, pH 7.4, A⟶B, no inhibitor, pH 7.4): 125%
- recovery ([3]; MDCK-MDR1, pH 7.4, B⟶A, no inhibitor, pH 7.4): 104%
- recovery ([3]; MDCK-MDR1, pH 7.4, with cyclosporin A 10 µM, A⟶B + cyclosporin-A, pH 7.4): 108%
- recovery ([3]; MDCK-MDR1, pH 7.4, with elacridar 2 µM, A⟶B + elacridar, pH 7.4): 100%
- recovery ([3]; MDCK-MDR1, pH 7.4, with verapamil 100 µM, A⟶B + verapamil, pH 7.4): 96%
- recovery ([3]; MDCK-MDR1, pH 9, with elacridar 2 µM, + 2 µM elacridar, pH 9, n = 3 (Table S13)): 105%
- Papp ([3]; + 2 µM elacridar, pH 9, three replicates (n = 3) (Table S13)): 1.7 ± 0.7 ×10⁻⁶ cm/s
Structure (SMILES): NS(=O)(=O)c1cc2c(cc1Cl)N=CNS2(=O)=O [Chlorothiazide]

- fn ([1]; neutral fraction at pH 5): 0.0%
- Papp ([5]; MDCK-MDR1, pH 5): 0.77 ± 0.26 ×10⁻⁶ cm/s
- Papp A→B ([5]; MDCK-MDR1, pH 5): 0.457 ×10⁻⁶ cm/s
- Papp B→A ([5]; MDCK-MDR1, pH 5): 0.46 ± 0.25 ×10⁻⁶ cm/s
- Papp ([5]; MDCK-MDR1, pH 6): 0.16 ± 0.03 ×10⁻⁶ cm/s
- Papp B→A ([5]; MDCK-MDR1, pH 6): 0.23 ± 0.08 ×10⁻⁶ cm/s
- Papp ([5]; MDCK-MDR1, pH 7): 0.13 ± 0.03 ×10⁻⁶ cm/s
- Papp B→A ([5]; MDCK-MDR1, pH 7): 0.78 ± 0.36 ×10⁻⁶ cm/s
- Papp ([5]; MDCK-MDR1, pH 8): 0.17 ± 0.05 ×10⁻⁶ cm/s
- Papp B→A ([5]; MDCK-MDR1, pH 8): 4.4 ± 0.29 ×10⁻⁶ cm/s
- recovery ([6]; MDCK-MDR1, pH 5): 94 to 100%
- recovery ([6]; MDCK-MDR1, pH 6): 90 to 96%
- recovery ([6]; MDCK-MDR1, pH 7): 88 to 93%
- recovery ([6]; MDCK-MDR1, pH 8): 64 to 71%
- logPapp, B⟶A ([7]; pH 6, iso-pH method): -6.64 P in cm/s
- logPapp, B⟶A ([7]; pH 7, iso-pH method): -6.11 P in cm/s
- logPapp, B⟶A ([7]; pH 8, iso-pH method): -5.36 P in cm/s
- recovery ([3]; MDCK-MDR1, pH 5, with elacridar 2 µM, + 2 µM elacridar, pH 5, n = 3 (Table S13)): 130%
- Papp ([3]; + 2 µM elacridar, pH 5, three replicates (n = 3) (Table S13)): 0.4 ± 0.1 ×10⁻⁶ cm/s
Structure (SMILES): COc1cccc2c1C(=O)c1c(O)c3c(c(O)c1C2=O)C[C@@](O)(C(=O)CO)C[C@@H]3O[C@H]1C[C@H](N)[C@H](O)[C@H](C)O1 [Doxorubicin]
- pKa [4]: 9.56

Structure (SMILES): C[C@H]1O[C@@H](O[C@H]2[C@@H](O)C[C@H](O[C@H]3[C@@H](O)C[C@H](O[C@H]4CC[C@@]5(C)[C@H](CC[C@@H]6[C@@H]5C[C@@H](O)[C@]5(C)[C@@H](C7=CC(=O)OC7)CC[C@]65O)C4)O[C@@H]3C)O[C@@H]2C)C[C@H](O)[C@@H]1O [Digoxin]
- Papp [8]: 2.53 ×10⁻⁶ cm/s
- Factor difference ([9]; This study, Papp,B⟶A vs Papp with inhibitor): 7
- Factor difference ([9]; calculated from literature Papp,B⟶A and Papp with inhibitor): 10 and 6 and 5 and 7
- Papp, inhibitor ([10]; ref Chang et al. (2006)): 2.04 ×10⁻⁶ cm/s
- Papp, inhibitor ([10]; ref Taub et al. (2005)): 1.39 ×10⁻⁶ cm/s
- Papp, inhibitor [10, 12]: 7.5 ×10⁻⁶ cm/s
- Papp, inhibitor ([10]; ref Wang et al. (2005)): 1 ×10⁻⁶ cm/s
- Papp, B⟶A ([10]; ref Chang et al. (2006)): 15.2 ×10⁻⁶ cm/s
- Papp, B⟶A ([10]; ref Taub et al. (2005)): 8.15 ×10⁻⁶ cm/s
- Papp, B⟶A [10, 12]: 35.7 ×10⁻⁶ cm/s
- Papp, B⟶A ([10]; ref Wang et al. (2005)): 9.75 ×10⁻⁶ cm/s
- fn ([1]; neutral fraction at pH 7.4): 100%
- Pb,app active (fitted) [11, 13]: 51.6 ×10⁻⁶ cm/s
- Ppara (fitted) [11, 13]: 5.22 ×10⁻⁶ cm/s
- P0 ([11]; human, Caco-2): 2.69-06 cm/s
- Ppgp,app active (fitted) ([11]; human, Caco-2, pH 7.4): 63.9 ×10⁻⁶ cm/s
- Pb active in Caco-2 fit compared with MDCK results (iso-pH method) ([11]; neutral-neutral fit): one order of magnitude higher
- Papp ([5]; MDCK-MDR1, pH 5): 0.53 ± 0.15 ×10⁻⁶ cm/s
- Papp B→A ([5]; MDCK-MDR1, pH 5): 6.12 ± 1.9 ×10⁻⁶ cm/s
- Papp ([5]; MDCK-MDR1, pH 6): 0.51 ± 0.12 ×10⁻⁶ cm/s
- Papp B→A ([5]; MDCK-MDR1, pH 6): 16.3 ± 0.8 ×10⁻⁶ cm/s
- Papp ([5]; MDCK-MDR1, pH 7.4): 0.59 ± 0.11 ×10⁻⁶ cm/s
- Papp B→A ([5]; MDCK-MDR1, pH 7.4): 17.8 ± 2.8 ×10⁻⁶ cm/s
- Papp ([5]; MDCK-MDR1, pH 8): 0.72 ± 0.13 ×10⁻⁶ cm/s
- Papp B→A ([5]; MDCK-MDR1, pH 8): 16.3 ± 2 ×10⁻⁶ cm/s
- Papp ([5]; MDCK-MDR1, pH 9): 1.9 ± 0.32 ×10⁻⁶ cm/s
- Papp B→A ([5]; MDCK-MDR1, pH 9): 7.63 ± 1.73 ×10⁻⁶ cm/s
- recovery ([6]; MDCK-MDR1, pH 5): 71 to 116%
- recovery ([6]; MDCK-MDR1, pH 6): 74 to 88%
- recovery ([6]; MDCK-MDR1, pH 7.4): 73 to 83%
- recovery ([6]; MDCK-MDR1, pH 8): 73 to 76%
- recovery ([6]; MDCK-MDR1, pH 9): 75 to 82%
- logPapp, A⟶B ([7]; pH 5, iso-pH method): -6.27 P in cm/s
- logPapp, B⟶A ([7]; pH 5, iso-pH method): -5.21 P in cm/s
- logPapp, A⟶B ([7]; pH 6, iso-pH method): -6.29 P in cm/s
- logPapp, B⟶A ([7]; pH 6, iso-pH method): -4.79 P in cm/s
- logPapp, A⟶B ([7]; pH 7.4, iso-pH method): -6.23 P in cm/s
- logPapp, B⟶A ([7]; pH 7.4, iso-pH method): -4.75 P in cm/s
- logPapp, A⟶B ([7]; pH 8, iso-pH method): -6.14 P in cm/s
- logPapp, B⟶A ([7]; pH 8, iso-pH method): -4.79 P in cm/s
- logPapp, A⟶B ([7]; pH 9, iso-pH method): -5.72 P in cm/s
- logPapp, B⟶A ([7]; pH 9, iso-pH method): -5.12 P in cm/s
